From paper PMC10508830 (Antiviral research, 2023) come the findings set out here.

Assay [1] relates to A/black vulture/Florida/22-012331-001/2022. The assay is described as follows: microbe, parasite or virus in culture. The class given is cell-based, influenza A(H5N1) virus. Particulars: Influenza A virus, read-out: Mean EC50 ± SD.
Assay [2] has as its system A/Louisiana/50/2017 A(H3N2). The assay is described as follows: microbe, parasite or virus in culture. The class given is cell-based. The note with it: Influenza A virus, H3N2, read-out: Mean EC50 ± SD.
Assay [3] deals with A/Illinois/08/2018 A(H1N1)pdm09. The assay is described as follows: microbe, parasite or virus in culture. The class given is cell-based, influenza A(H1N1)pdm09 virus. The note with it: Influenza A virus, H1N1, read-out: Mean EC50 ± SD.
The subject of assay [4] is A/bald eagle/Florida/22-006544-004/2022. The assay is described as follows: microbe, parasite or virus in culture. The class given is cell-based, influenza A(H5N1) virus. Particulars: Influenza A virus, read-out: Mean EC50 ± SD.
The subject of assay [5] is A/fox/Wisconsin/22-014746-030/2022. As to the kind of experiment: microbe, parasite or virus in culture. The class given is cell-based, influenza A(H5N1) virus. Particulars: Influenza A virus, read-out: Mean EC50 ± SD.
Assay [6] relates to A/Illinois/08/2018 A(H1N1)pdm09. The class given is cell-based, influenza A(H1N1)pdm09 virus. Particulars: read-out: Mean EC50 ± SD.
The target of assay [7] is NA of A/Illinois/45/2019 A(H1N1)pdm09 (Influenza A virus, UniProt A0A0X9QTS2). The class given is biochemical. The note with it: read-out: Mean IC50 ± SD.
The target in assay [8] is NA of A/bald eagle/Florida/22-006544-004/2022 (Influenza A virus, UniProt Q9Q0U7). The class given is biochemical. The note with it: read-out: Mean IC50 ± SD.
The target in assay [9] is NA of A/Cooper's hawk/Minnesota/22-012931-001/2022 (Influenza A virus, UniProt Q9Q0U7). The class given is biochemical, influenza A(H5N1) virus. The note with it: read-out: Mean IC50 ± SD.
The target in assay [10] is NA of A/red-shouldered hawk/Minnesota/22-012000-004/2022 (Influenza A virus, UniProt Q9Q0U7). The class given is biochemical. Particulars: read-out: Mean IC50 ± SD.
Assay [11] has as its target NA of A/fox/Wisconsin/22-013774-002/2022 (Influenza A virus, UniProt Q9Q0U7). The class given is biochemical. The note with it: read-out: Mean IC50 ± SD.
Assay [12] addresses NA of A/black vulture/Florida/22-012333-001/2022 (N/S295, T/N438, mixed population) (Influenza A virus (H5N1), UniProt Q9Q0U7). The class given is biochemical. The note with it: read-out: Mean IC50 ± SD.
Assay [13] has as its target NA of A/Canada goose/Wyoming/22-011671-001/2022 (Influenza A virus, UniProt Q9Q0U7). The class given is biochemical, influenza A(H5N1) virus. Particulars: read-out: Mean IC50 ± SD.
Assay [14] deals with NA of A/fox/Michigan/22-014536-004/2022 (del50-70) (Influenza A virus, UniProt Q9Q0U7). The class given is biochemical, influenza A(H5N1) virus. Particulars: read-out: Mean IC50 ± SD.
Assay [15] deals with NA of A/black vulture/Maryland/22-012407-001/2022 (Influenza A virus (H5N1), UniProt Q9Q0U7). The class given is biochemical. The note with it: read-out: Mean IC50 ± SD.
Assay [16] concerns the target NA of A/turkey/Iowa/22-012098-001/2022 (Influenza A virus, UniProt Q9Q0U7). The class given is biochemical. Particulars: read-out: Mean IC50 ± SD.

Like-named read-outs stand apart in the source and are kept apart here.

In the case of `O=C1c2c(O)c(=O)ccn2N([C@@H]2c3ccccc3SCc3c2ccc(F)c3F)[C@@H]2COCCN12` [Baloxavir, baloxavir acid], the EC50 stood at 0.44 nM in [1]; 1.04 ± 0.43 nM in assay [2]; 1.65 ± 0.44 nM in assay [3]; 0.41 nM in [4]; 0.32 nM in [5]; 1.12 ± 0.32 nM in assay [6].
Consider oseltamivir carboxylate, for which the half-maximal inhibitory concentration (IC50) in assay [7] turned out to be 0.17 ± 0.03 nM.
In the case of peramivir, the half-inhibitory concentration (IC50) in assay [8] amounted to 0.08 nM; in assay [9], 0.1 nM; in [10] it was 0.09 nM; in assay [11], 0.09 nM; in [7], 0.06 ± 0.01 nM; in [12], 0.55 nM. For the same compound, the half-maximal inhibitory concentration (IC50) was 0.08 nM in assay [13], 0.1 nM in assay [14], 0.1 nM in [15] and 0.1 nM in assay [16].

As a reminder, the EC50 is the concentration giving half of the maximal effect. What is called IC50 is the midpoint of a concentration-inhibition curve.
